Assay results reported in publication PMC5613016, “GRL-09510, a Unique P2-Crown-Tetrahydrofuranylurethane -Containing HIV-1 Protease Inhibitor, Maintains Its Favorable Antiviral Activity against Highly-Drug-Resistant HIV-1 Variants in vitro” (Scientific Reports, 2017).

Key:
[1] = test system: HIV-192UG029 (subtype A, X4); assay: p24 production inhibition in PHA-PBMC; assay type: cell-based, HIV-1; conditions: Human immunodeficiency virus 1, read-out: EC50 HIV-192UG029 (subtype A, X4)
Description: (§1) The susceptibility of HIV-1LAI or HIV-2ROD to various compounds was determined as previously described[20]–[22]. Briefly, MT-2 cells (10^4/ml) were exposed to 100 TCID50 of HIV-1LAI or HIV-2ROD in the presence or absence of various concentrations of compounds in 96-well plates and were incubated at 37 °C for 7 days. After incubation, 100 μl of the medium was removed from each well, 3-(4,5-dimetylthiazol-2-yl)-2,5-diphenyltetrazolium bromide (MTT) solution (10 μl, 7.5 mg/ml in PBS) was added to each well, followed by incubation at 37 °C for 2 h. […] To determine the sensitivity of clinically isolated HIV-1s to compounds, PHA-PBMC (10^6/ml) were exposed to 50 TCID50 of each HIV-1 and cultured in the presence or absence of various concentrations of compounds in 10-fold serial dilutions in 96-well plates. In determining the drug-susceptibility of certain laboratory HIV-1 strains, MT-4 cells were employed as target cells as previously described[23],[24]. MT-4 cells (10^5/ml) were exposed to 100 TCID50 of drug-resistant HIV-1s in the presence or absence of various concentrations of compounds and were incubated at 37 °C. On day 7, the supernatants were harvested and the amounts of p24 were determined by using a fully-automated chemiluminescent enzyme immunoassay system (Lumipulse f: Fujirebio, Tokyo)[35]–[37]. […] All assays were performed in duplicate, and EC50 shown in this report represent average values of two to four independent experiments. PHA-PBMCs were derived from a single donor in each independent experiment. The research protocols described in the present study were carried out in accordance with relevant guidelines and regulations, and were approved in Ethics Committee for Epidemiological and General Research at the Faculty of Life Sciences, Kumamoto University.

[2] = test system: HIV-1NL4-3; set-up: method as in PMID 14506019; conditions: HIV-1NL4-3 in MT-4 cells, increasing concentrations; previously reported; cited from earlier work
[3] = test system: HIV-2ROD; assay: microbe, parasite or virus in culture; assay type: cell-based; conditions: for EC50: Human immunodeficiency virus 2, MT2, MT-2 cells, 100 TCID50, MTT assay, read-out: EC50 Against HIV-2ROD; for Selectivity Index (CC50/EC50) MT2/HIV-2ROD: ratio of CC50 to EC50 against HIV-2ROD
Description: as §1

[4] = test system: HIV-1LAI; assay: microbe, parasite or virus in culture; assay type: cell-based; conditions: for EC50: Human immunodeficiency virus 1, MT2, MT-2 cells, 100 TCID50, MTT assay, read-out: EC50 Against HIV-1LAI; for Selectivity Index (CC50/EC50) MT2/HIV-1LAI: ratio of CC50 to EC50 against HIV-1LAI
Description: as §1

[5] = test system: HIV-1MDR/G; assay: p24 production inhibition in PHA-PBMC; assay type: cell-based; conditions: for EC50: Human immunodeficiency virus 1, PHA-PBMC, p24 Gag production; for fold change of EC50 HIV-1MDR/G: compared to EC50 for HIV-1ERS104pre
Description: as §1

[6] = test system: HIV-1MDRmix DRV ^R 20P; assay: p24 production inhibition in PHA-PBMC; assay type: cell-based; conditions: for EC50: Human immunodeficiency virus 1, read-out: EC50 HIV-1MDRmix DRV ^R 20P, PHA-PBMC, p24 Gag production; for fold change of EC50 HIV-1MDRmix DRV ^R 20P: compared to EC50 for HIV-1ERS104pre
Description: as §1

[7] = test system: HIV-1MDR/B; assay: p24 production inhibition in PHA-PBMC; assay type: cell-based; conditions: for EC50: Human immunodeficiency virus 1, PHA-PBMC, p24 Gag production; for fold change of EC50 HIV-1MDR/B: compared to EC50 for HIV-1ERS104pre
Description: as §1

[8] = test system: HIV-1MDR/TM; assay: p24 production inhibition in PHA-PBMC; assay type: cell-based; conditions: for EC50: Human immunodeficiency virus 1, PHA-PBMC, p24 Gag production; for fold change of EC50 HIV-1MDR/TM: compared to EC50 for HIV-1ERS104pre
Description: as §1

[9] = test system: HIV-1MDR/C; assay: p24 production inhibition in PHA-PBMC; assay type: cell-based; conditions: for EC50: Human immunodeficiency virus 1, PHA-PBMC, p24 Gag production; for fold change of EC50 HIV-1MDR/C: compared to EC50 for HIV-1ERS104pre
Description: as §1

[10] = test system: HIV-1ERS104pre (wild-type); assay: p24 production inhibition in PHA-PBMC; assay type: cell-based; conditions: Human immunodeficiency virus 1, PHA-PBMC, p24 Gag production
Description: as §1

[11] = test system: HIV-1BaL (subtype B, R5); assay: p24 production inhibition in PHA-PBMC; assay type: cell-based; conditions: Human immunodeficiency virus 1, PHA-PBMC, p24 Gag production
Description: as §1

[12] = test system: HIV-1ME46 (subtype B, X4/R5); assay: p24 production inhibition in PHA-PBMC; assay type: cell-based; conditions: Human immunodeficiency virus 1, PHA-PBMC, p24 Gag production
Description: as §1

[13] = Cytotoxicity against MT-2 cells (MTT assay); assay type: cell-based; conditions: human
Description: as §1

[14] = test system: HIV-1NL4-3; assay: p24 production inhibition in MT-4 cells; assay type: cell-based; conditions: Human immunodeficiency virus 1, MT4, MT-4 cells, p24 Gag production, Table 3
Description: as §1

[15] = test system: HIV-1APV ^R 5μM; assay: p24 production inhibition in MT-4 cells; assay type: cell-based; conditions: for EC50: Human immunodeficiency virus 1, MT4, read-out: EC50 HIV-1APV ^R 5μM, MT-4 cells, p24 Gag production; for fold change of EC50 HIV-1APV ^R 5μM: number in parentheses, compared to HIV-1NL4-3
Description: as §1

[16] = test system: HIV-1ATV ^R 5μM; assay: p24 production inhibition in MT-4 cells; assay type: cell-based; conditions: for EC50: Human immunodeficiency virus 1, MT4, read-out: EC50 HIV-1ATV ^R 5μM, MT-4 cells, p24 Gag production; for fold change of EC50 HIV-1ATV ^R 5μM: number in parentheses, compared to HIV-1NL4-3
Description: as §1

[17] = test system: HIV-1LPV ^R 5μM; assay: p24 production inhibition in MT-4 cells; assay type: cell-based; conditions: for EC50: Human immunodeficiency virus 1, MT4, read-out: EC50 HIV-1LPV ^R 5μM, MT-4 cells, p24 Gag production; for fold change of EC50 HIV-1LPV ^R 5μM: number in parentheses, compared to HIV-1NL4-3
Description: as §1

[18] = test system: HIV-1_9510 ^R 36P; assay: p24 production inhibition in MT-4 cells; assay type: cell-based; conditions: for EC50: Human immunodeficiency virus 1, MT4, read-out: EC50 HIV-19510RP36; for fold change of EC50 HIV-19510RP36: compared to EC50 for HIV-1NL4-3, Supplemental Table 3
Description: as §1

Row | Structure (SMILES) | EC50 [1] [nM] | EC50 [3] [nM] | Selectivity Index (CC50/EC50) MT2/HIV-2ROD [3] | EC50 [4] [nM] | Selectivity Index (CC50/EC50) MT2/HIV-1LAI [4] | EC50 [5] [nM] | fold change of EC50 HIV-1MDR/G [5] | EC50 [6] [nM] | fold change of EC50 HIV-1MDRmix DRV ^R 20P [6] | EC50 [7] [nM] | fold change of EC50 HIV-1MDR/B [7] | EC50 [8] [nM] | fold change of EC50 HIV-1MDR/TM [8] | EC50 [9] [nM] | fold change of EC50 HIV-1MDR/C [9] | EC50 [10] [nM] | EC50 [11] [nM] | EC50 [12] [nM] | CC50 [13] [nM] | EC50 [14] [nM] | other results
1 | CC(C)CN(C[C@@H](O)[C@H](Cc1ccccc1)NC(=O)O[C@H]1CCOC1)S(=O)(=O)c1ccc(N)cc1 [APV, Amprenavir] | 41 ± 2 | 297 ± 174 | 162 | 37 ± 7 | 1,303 | 300 ± 90 | 8 | > 1000 | > 26 | 420 ± 50 | 11 | 320 ± 50 | 8 | 250 ± 50 | 6 | 39 ± 5 | 29 ± 2 | 22 ± 40 | 48200 ± 9900 | 30 ± 6 | passage at which selection concentration reached 5 µM [2]: ≥ 20; EC50 [15]: > 1000 nM; fold change of EC50 HIV-1APV ^R 5μM [15]: > 25; EC50 [16]: 350 ± 70 nM; fold change of EC50 HIV-1ATV ^R 5μM [16]: 9; EC50 [17]: > 1000 nM; fold change of EC50 HIV-1LPV ^R 5μM [17]: > 25; EC50 [18]: 270 ± 20 nM; fold change of EC50 HIV-19510RP36 [18]: 9
2 | COC(=O)N[C@H](C(=O)N[C@@H](Cc1ccccc1)[C@@H](O)CN(Cc1ccc(-c2ccccn2)cc1)NC(=O)[C@@H](NC(=O)OC)C(C)(C)C)C(C)(C)C [ATV, Atazanavir] | 6 ± 3 | 17 ± 3 | 1,906 | 4 ± 1 | 8,100 | 30 ± 10 | 10 | > 1000 | > 323 | 360 ± 160 | 116 | 71 ± 8 | 23 | 50 ± 20 | 16 | 3.1 ± 0.6 | 2 ± 1 | 4.2 ± 0.5 | 32400 ± 1000 | 4.3 ± 0.9 | EC50 [15]: 371 ± 8 nM; fold change of EC50 HIV-1APV ^R 5μM [15]: 86; EC50 [16]: > 1000 nM; fold change of EC50 HIV-1ATV ^R 5μM [16]: > 233; EC50 [17]: 38 ± 1 nM; fold change of EC50 HIV-1LPV ^R 5μM [17]: 9; EC50 [18]: 24 ± 1 nM; fold change of EC50 HIV-19510RP36 [18]: 6
